Test results taken from PMC11594246, “Nitrilase GiNIT from Gibberella intermedia Efficiently Degrades Nitriles Derived from Rapeseed Meal Glucosinolate” (International Journal of Molecular Sciences, 2024).

Key:
rRrNIT = molecular target: T1, rRrNIT (Rhodococcus rhodochrous, UniProt Q02068); assay: specific activity, Bertholet ammonia assay; assay type: biochemical; details: 50 mM substrate, pH 7.5, 45 °C
T1 construct: synthetic gene expressed in E. coli BL21(DE3), purified
T1 sequence (Q02068 1-383): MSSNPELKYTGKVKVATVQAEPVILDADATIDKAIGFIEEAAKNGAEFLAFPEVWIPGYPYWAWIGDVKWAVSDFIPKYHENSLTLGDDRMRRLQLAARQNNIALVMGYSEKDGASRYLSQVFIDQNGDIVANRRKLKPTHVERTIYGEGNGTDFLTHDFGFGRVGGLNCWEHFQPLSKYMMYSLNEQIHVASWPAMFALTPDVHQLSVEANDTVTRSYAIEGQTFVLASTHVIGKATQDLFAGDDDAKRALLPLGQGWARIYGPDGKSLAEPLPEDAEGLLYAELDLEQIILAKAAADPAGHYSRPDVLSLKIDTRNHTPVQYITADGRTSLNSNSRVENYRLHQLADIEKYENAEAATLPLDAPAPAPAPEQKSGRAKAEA

rBdNIT = molecular target: T2, rBdNIT (Bradyrhizobium diazoefficiens, UniProt Q89PT3); assay: specific activity, Bertholet ammonia assay; assay type: biochemical; details: 50 mM substrate, pH 7.5, 45 °C
T2 construct: gene blr3397; synthetic gene expressed in E. coli BL21(DE3), purified
T2 sequence (Q89PT3 1-321): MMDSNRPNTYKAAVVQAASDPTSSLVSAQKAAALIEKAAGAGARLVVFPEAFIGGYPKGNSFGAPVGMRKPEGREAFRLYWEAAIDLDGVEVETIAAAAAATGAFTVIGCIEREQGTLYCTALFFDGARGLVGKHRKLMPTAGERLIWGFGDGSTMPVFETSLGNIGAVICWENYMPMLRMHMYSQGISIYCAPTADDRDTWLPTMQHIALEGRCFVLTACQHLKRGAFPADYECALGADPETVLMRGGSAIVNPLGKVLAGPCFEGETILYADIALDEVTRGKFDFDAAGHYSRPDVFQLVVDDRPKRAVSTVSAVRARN

SMILES	specific activity, Bertholet ammonia assay (rRrNIT)	specific activity, Bertholet ammonia assay (rBdNIT)
C=CCC#N [3-butenenitrile]	rRrNIT from Rhodococcus rhodochrous	rBdNIT from Bradyrhizobium diazoefficiens
C=CCCC#N [4-pentenenitrile]	rRrNIT from Rhodococcus rhodochrous	rBdNIT from Bradyrhizobium diazoefficiens
